Reference: patent US9890166B2, “Imidazopyrrolidine derivatives and their use in the treatment of disease” (NOVARTIS AG, priority 2013, dated 2018)

Tests used:
BRD4 (His-Brd4(44-477)) = BRD4 (His-Brd4(44-477)) (Homo sapiens (Human), UniProt O60885); assay: TR-FRET in-vitro binding assay for BRD4; conditions: single determination or n ≧ 2 independent determinations, read-out: Biochemical IC50 BRD4
Outline: (§1)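 In this TR-FRET format, each compound was tested as an 8-point dilution series, single point per concentration, dispensed from 90% DMSO solution. Incubation lasted 35 minutes at 30° C.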

BRD2 (His-Brd2(60-472)) = BRD2 (His-Brd2(60-472)) (Homo sapiens (Human), UniProt P25440); assay: TR-FRET in-vitro binding assay for BRD2; conditions: single determination or n ≧ 2 independent determinations, read-out: Biochemical IC50 BRD2
Outline: as §1

BRD3 (His-Brd3(20-477)) = BRD3 (His-Brd3(20-477)) (Homo sapiens (Human), UniProt Q15059); assay: TR-FRET in-vitro binding assay for BRD3; conditions: single determination or n ≧ 2 independent determinations, read-out: Biochemical IC50 BRD3
Outline: as §1

[1] = molecular target: CREBBP bromodomain (His-CREBBP(1081-1197)) (Homo sapiens (Human), UniProt Q92793); assay: AlphaScreen in-vitro binding assay for CREBBP; conditions: single determination or n ≧ 2 independent determinations, read-out: Biochemical IC50 CREBBP
Outline: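 Detection used nickel-chelate acceptor plus streptavidin donor AlphaScreen beads, 1 h room temperature. Percent inhibition fitted by non-linear regression to IC50.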

THP-1 cells = assay: Cell growth inhibition assay (CellTiter-Glo), THP-1; conditions: for GI50: Homo sapiens, THP-1, read-out: THP-1 GI50; for THP-1 TGI: THP-1 cells, total growth inhibition, CellTiter-Glo;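 on all read-outs here: viability read as cellular ATP luminescence after 4 days, 3-fold dilution series from 10 µM, DMSO vehicle-treated cells taken as 100%, cell-free medium wells as −100%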
K-562 cells = assay: Cell growth inhibition assay (CellTiter-Glo), K-562; conditions: for GI50: Homo sapiens, K562, read-out: K-562 GI50; for K-562 TGI: K-562 cells, total growth inhibition, CellTiter-Glo;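 on all read-outs here: cellular ATP measured by luminescence after 4 days of exposure, 3-fold dilution series from 10 µM, DMSO vehicle-treated cells define 100%, cell-free medium wells −100%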
MV-4-11 cells = assay: Cell growth inhibition assay (CellTiter-Glo), MV-4-11; conditions: for GI50: Homo sapiens, MV4-11, read-out: MV-4-11 GI50; for MV-4-11 TGI: MV-4-11 cells, total growth inhibition, CellTiter-Glo;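 on all read-outs here: cellular ATP luminescence after 4 days, 3-fold dilution series from 10 µM top dose, vehicle (0.1% DMSO) set to 100%, cell-free medium set to −100%, day 0 corrected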

Chain of CREBBP bromodomain (His-CREBBP(1081-1197)) (Q92793 1081-1197): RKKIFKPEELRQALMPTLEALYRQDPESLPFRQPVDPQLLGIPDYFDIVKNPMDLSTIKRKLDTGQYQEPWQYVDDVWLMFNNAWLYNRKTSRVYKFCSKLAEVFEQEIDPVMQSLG
Chain of BRD2 (His-Brd2(60-472)) (P25440 60-472): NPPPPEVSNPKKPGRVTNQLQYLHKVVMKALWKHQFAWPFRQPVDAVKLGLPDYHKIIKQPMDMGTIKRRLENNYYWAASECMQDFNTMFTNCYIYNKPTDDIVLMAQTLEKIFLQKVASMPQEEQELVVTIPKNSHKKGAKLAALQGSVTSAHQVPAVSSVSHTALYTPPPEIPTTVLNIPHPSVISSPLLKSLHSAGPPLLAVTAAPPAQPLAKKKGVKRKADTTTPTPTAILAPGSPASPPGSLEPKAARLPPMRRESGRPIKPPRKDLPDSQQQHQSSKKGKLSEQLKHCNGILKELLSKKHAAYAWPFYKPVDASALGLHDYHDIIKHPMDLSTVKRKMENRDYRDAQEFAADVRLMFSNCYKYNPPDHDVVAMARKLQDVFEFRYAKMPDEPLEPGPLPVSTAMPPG
Chain of BRD3 (His-Brd3(20-477)) (Q15059 20-477): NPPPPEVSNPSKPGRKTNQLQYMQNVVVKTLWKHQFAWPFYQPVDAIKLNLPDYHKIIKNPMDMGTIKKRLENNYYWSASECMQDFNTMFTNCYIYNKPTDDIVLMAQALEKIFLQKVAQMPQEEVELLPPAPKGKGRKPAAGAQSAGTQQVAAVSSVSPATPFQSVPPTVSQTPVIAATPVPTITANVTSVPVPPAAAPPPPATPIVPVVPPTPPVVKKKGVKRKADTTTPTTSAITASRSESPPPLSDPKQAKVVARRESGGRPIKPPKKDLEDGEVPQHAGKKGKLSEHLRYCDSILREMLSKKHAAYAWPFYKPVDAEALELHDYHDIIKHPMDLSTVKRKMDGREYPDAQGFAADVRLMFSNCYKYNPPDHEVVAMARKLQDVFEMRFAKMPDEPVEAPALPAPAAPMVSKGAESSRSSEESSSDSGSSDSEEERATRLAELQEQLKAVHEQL

SMILES | IC50 (BRD4 (His-Brd4(44-477))) | IC50 (BRD2 (His-Brd2(60-472))) | IC50 (BRD3 (His-Brd3(20-477))) | IC50 [1] | GI50 (THP-1 cells) | THP-1 TGI (THP-1 cells) | GI50 (K-562 cells) | K-562 TGI (K-562 cells) | GI50 (MV-4-11 cells) | MV-4-11 TGI (MV-4-11 cells)
Cc1cc(N2C(=O)c3nc(C)n(C(C)C)c3C2c2ccc(Cl)cc2)cn2c(C)nnc12 (stereo not shown) [Example 58, 6-(4-chlorophenyl)-5-(3,8-dimethyl-[1,2,4]triazolo[4,3-a]pyridin-6-yl)-1-isopropyl-2-methyl-5,6-dihydropyrrolo[3,4-d]imidazol-4(1H)-one] | 55 nM | 78 nM | 38 nM | 10400 nM | 99.5 nM | 207.5 nM | 366 nM | >10000 nM | 23.8 nM | 48.75 nM
COC(=O)N1CC=C(c2nc3c(n2C(C)C)C(c2ccc(Cl)cc2)N(c2cc(C)c4nnc(C)n4c2)C3=O)CC1 (stereo not shown) [Example 65, methyl 4-(6-(4-chlorophenyl)-5-(3,8-dimethyl-[1,2,4]triazolo[4,3-a]pyridin-6-yl)-1-isopropyl-4-oxo-1,4,5,6-tetrahydropyrrolo[3,4-d]imidazol-2-yl)-5,6-dihydropyridine-1(2H)-carboxylate] | 24 nM | 50 nM | 27.5 nM | 4000 nM | 138 nM | 299.5 nM | 298 nM | >10000 nM | 19.3 nM | 38.95 nM
COc1cc(N2C(=O)c3nc(C4CCOCC4)n(C(C)C)c3C2c2ccc(Cl)cc2)cc2c1nnn2C (racemic) [Example 64] | 43 nM | 120 nM | 58 nM | 10200 nM | 84.3 nM | 155 nM | 156 nM | >10000 nM | 35.1 nM | 54.6 nM
Cc1cc(N2C(=O)c3nc(C4CCN(C)CC4)n(C(C)C)c3C2c2ccc(Cl)cc2)nn2c(C)nnc12 (stereo not shown) [Example 169, 6-(4-chlorophenyl)-5-(3,8-dimethyl-[1,2,4]triazolo[4,3-b]pyridazin-6-yl)-1-isopropyl-2-(1-methylpiperidin-4-yl)-5,6-dihydropyrrolo[3,4-d]imidazol-4(1H)-one] | 19 nM | 25 nM | 33 nM | > 37000 nM | 11.5 nM | 32.95 nM | 55.9 nM | >10000 nM | 1.94 nM | 5.325 nM
Cc1cc(N2C(=O)c3nc(C4=CC(C)(C)NC(C)(C)C4)n(C(C)C)c3C2c2ccc(Cl)cc2)cn2c(C)nnc12 (stereo not shown) [Example 51, 6-(4-Chlorophenyl)-5-(3,8-dimethyl-[1,2,4]triazolo[4,3-a]pyridin-6-yl)-1-isopropyl-2-(2,2,6,6-tetramethyl-1,2,3,6-tetrahydropyridin-4-yl)-5,6-dihydropyrrolo[3,4-d]imidazol-4(1H)-one] | 19.5 nM | 40 nM | 25 nM | 6400 nM | 212 nM | 612 nM | 439 nM | >10000 nM | 22.4 nM | 47.9 nM
Cc1cc(N2C(=O)c3nc(C4CC4)n(C(C)C)c3C2c2ccc(Cl)cc2)cn(C)c1=O (stereo not shown) [Example 28, 6-(4-chlorophenyl)-2-cyclopropyl-5-(1,5-dimethyl-6-oxo-1,6-dihydropyridin-3-yl)-1-isopropyl-5,6-dihydropyrrolo[3,4-d]imidazol-4(1H)-one] | 117 nM | 104 nM | 93.7 nM | 3400 nM | 208 nM | 384 nM | 908 nM | >10000 nM | 97.9 nM | 136 nM
COc1ncc(-c2nc3c([nH]2)C(c2ccc(Cl)cc2)N(c2cc(C)c4nnc(C)n4c2)C3=O)c(OC)n1 (stereo not shown) [Example 124, 6-(4-chlorophenyl)-2-(2,4-dimethoxypyrimidin-5-yl)-5-(3,8-dimethyl-[1,2,4]triazolo[4,3-a]pyridin-6-yl)-5,6-dihydropyrrolo[3,4-d]imidazol-4(1H)-one] | 38 nM | 94 nM | 39 nM | 3800 nM | 66.3 nM | 134.5 nM | 257 nM | >10000 nM | 56.2 nM | 96.75 nM
CC(=O)N1CC=C(c2nc3c(n2C(C)C)C(c2ccc(Cl)cc2)N(c2cc(C)c4nnc(C)n4c2)C3=O)CC1 (stereo not shown) [Example 66] | 31.5 nM | 86 nM | 66 nM | 3450 nM | 1760 nM | 5860 nM | 5540 nM | >10000 nM | 232 nM | 430 nM
COc1cc(N2C(=O)c3nc(C4=CCN(C)CC4)n(C(C)C)c3C2c2ccc(Cl)cc2)cc2c1nnn2C (stereo not shown) [Example 73] | 58 nM | 150 nM | 92.5 nM | 16100 nM | 93.6 nM | 254.5 nM | 300 nM | >10000 nM | 30.6 nM | 52.7 nM
COc1ccc(-c2nc3c(n2C(C)C)C(c2ccc(Cl)cc2)N(c2cc(C)c4nnc(C(F)F)n4n2)C3=O)cn1 (stereo not shown) [Example 149, 6-(4-chlorophenyl)-5-(3-(difluoromethyl)-8-methyl-[1,2,4]triazolo[4,3-b]pyridazin-6-yl)-1-isopropyl-2-(6-methoxypyridin-3-yl)-5,6-dihydropyrrolo[3,4-d]imidazol-4(1H)-one] | 16 nM | 22 nM | 21 nM | > 37000 nM | 33.3 nM | 83.9 nM | 148 nM | >10000 nM | 26.5 nM | 43.5 nM
COc1cc(N2C(=O)c3nc(C4=CCCN(C)C4)n(C(C)C)c3C2c2ccc(Cl)cc2)cc2c1nnn2C (stereo not shown) [Example 62] | 120 nM | 150 nM | 86 nM | 31400 nM | 164 nM | 331.5 nM | 391 nM | >10000 nM | 41.9 nM | 80.25 nM
Cc1cc(N2C(=O)c3nc(C4=CCOCC4)n(C(C)C)c3[C@H]2c2ccc(Cl)cc2)cc2c1nnn2C [Example 81, (R)-6-(4-chlorophenyl)-2-(3,6-dihydro-2H-pyran-4-yl)-5-(1,4-dimethyl-1H-benzo[d][1,2,3]triazol-6-yl)-1-isopropyl-5,6-dihydropyrrolo[3,4-d]imidazol-4(1H)-one] | < 11 nM | < 11 nM | < 11 nM | 1500 nM | 3.82 nM | 10.7 nM | 19.5 nM | >10000 nM | 3.42 nM | 5.405 nM
Cc1cc(N2C(=O)c3nc(C4=CCCN(C)C4)n(C(C)C)c3[C@H]2c2ccc(Cl)cc2)cn2c(C)nnc12 [Example 85] | 15 nM | 29 nM | 20 nM | 3650 nM | 138 nM | 370 nM | 277 nM | >10000 nM | 16.3 nM | 32.5 nM
